Results taken from PubChem BioAssay (NCI).
“And” between values parts separate entries of the source, which are not always exact repeats. Equal entries are not always repeated.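 Cells were grown in 96-well plates and exposed to each compound for 48 hours at five concentrations; endpoints were interpolated linearly between bracketing concentrations, or set to the highest concentration if not reached. At the GI50, growth is halved. TGI: concentration producing complete growth inhibition.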

Key:
Assay in all cases: NCI-60 cell line screen, 48 h
RPMI-8226 leukemia = tested on: RPMI-8226 leukemia
K-562 leukemia = tested on: K-562 leukemia
MALME-3M melanoma = tested on: MALME-3M melanoma
HCC-2998 colon = tested on: HCC-2998 colon
SF-268 CNS = tested on: SF-268 CNS
HL-60(TB) leukemia = tested on: HL-60(TB) leukemia
OVCAR-8 ovarian = tested on: OVCAR-8 ovarian
NCI-H522 lung = tested on: NCI-H522 lung
SNB-19 CNS = tested on: SNB-19 CNS
SF-295 CNS = tested on: SF-295 CNS

Structure (SMILES) | GI50 (RPMI-8226 leukemia) | TGI (RPMI-8226 leukemia) | GI50 (K-562 leukemia) | TGI (K-562 leukemia) | GI50 (MALME-3M melanoma) | TGI (MALME-3M melanoma) | GI50 (HCC-2998 colon) | TGI (HCC-2998 colon) | GI50 (SF-268 CNS) | TGI (SF-268 CNS) | GI50 (HL-60(TB) leukemia) | TGI (HL-60(TB) leukemia) | GI50 (OVCAR-8 ovarian) | TGI (OVCAR-8 ovarian) | GI50 (NCI-H522 lung) | TGI (NCI-H522 lung) | GI50 (SNB-19 CNS) | TGI (SNB-19 CNS) | GI50 (SF-295 CNS) | TGI (SF-295 CNS)
CC(=O)N1N=C2/C(=C/c3ccc(Cl)cc3)CC(C)CC2C1c1ccc(Cl)cc1 (centres undefined) | 9.14 µM | 32.6 µM | 13.8 µM | 65.8 µM | 23.6 µM | 76.2 µM | 19.1 µM | 38.1 µM | 21.5 µM | 73.4 µM | 13.5 µM | 59.5 µM | 24.9 µM | > 100 µM | 17.1 µM | 56.8 µM | 23.7 µM | > 100 µM | 28.8 µM | > 100 µM
COc1ccc(C2=NN(C(=O)c3cc(OC)c(OC)c(OC)c3)C(c3ccc(N(C)C)cc3)C2)cc1 (centres undefined) | 0.663 µM | > 20 µM | 0.551 µM | > 100 µM | 41.6 µM | > 100 µM | 0.357 µM | 2.69 µM | 0.736 µM | > 100 µM | 0.499 µM | 2.87 µM | 2.42 µM | > 100 µM | 0.352 µM |  | 1.84 µM | > 100 µM | 0.339 µM | 40.4 µM
O=C1CCSC2=C1SCc1sccc12 |  | > 100 µM |  | > 100 µM |  | > 100 µM |  | > 100 µM |  | > 100 µM |  | > 100 µM |  | > 100 µM |  | > 100 µM |  | > 100 µM |  | > 100 µM
Cc1ccc(Cl)c(Nc2ccccc2C(=O)O)c1Cl | 26.6 µM | 80.5 µM | 33.2 µM | > 100 µM | 23.1 µM | 63.4 µM | 26.6 µM | 66.4 µM | 31.8 µM | > 100 µM | 22.7 µM | 51.4 µM | 29.6 µM | > 100 µM | 28.3 µM | 87.2 µM | 35 µM | > 100 µM | 25.3 µM | 76 µM
O=C(O)c1ccc(C(=O)O)c(C(=O)Nc2ccc3c(c2)C(=O)c2ccccc2-3)c1 |  | > 100 µM |  | > 100 µM |  | > 100 µM |  | > 100 µM |  | > 100 µM |  | > 100 µM |  | > 100 µM |  | > 100 µM |  | > 100 µM |  | > 100 µM
Cn1c(/C=C/[N+](=O)[O-])cc2ccccc21 | 3.18 µM | > 100 µM | 2.9 µM | > 100 µM | 11.1 µM | 25.9 µM | 1.84 µM | 3.36 µM | 11.7 µM | 27.4 µM | 13.1 µM | 57.5 µM | 3.17 µM | 31.7 µM | 2.22 µM | 7.43 µM | 11.1 µM | 28.8 µM | 5.84 µM | > 100 µM
COc1cc2c(cc1OC)C1Cc3cc(OC)c(OC)cc3C(C2)N1C | 17.1 µM and > 100 µM | > 100 µM |  | > 100 µM |  | > 100 µM |  | > 100 µM |  | > 100 µM |  | > 75 µM |  | > 100 µM |  | > 100 µM |  | > 100 µM |  | > 100 µM
CC(=O)OC12COC1CC(O)C1(C)C(=O)C(O)C3=C(C)C(O)CC(O)(C(OC(=O)c4ccccc4)C21)C3(C)C (centres undefined) |  | > 59.8 µM |  | > 100 µM |  | > 100 µM |  | 59.3 µM |  | > 100 µM |  | 24.3 µM |  | > 100 µM |  | 11.2 µM |  | > 100 µM |  | > 100 µM
O=C1c2cccc(NCCN=Cc3ccccc3O)c2C(=O)c2c(NCCN=Cc3ccccc3O)cccc21 | 0.878 µM | 4.29 µM | 0.406 µM | 5.14 µM | 1.01 µM | 2.86 µM | 0.535 µM | 1.72 µM | 0.349 µM | 1.46 µM | 1.09 µM | 3.4 µM | 0.369 µM | 2.47 µM | 0.278 µM | 1.38 µM | 0.776 µM | 3.54 µM | 0.409 µM | 1.88 µM
COc1ccc(C2C(C)C(=O)C(C)C(c3ccc(OC)cc3)N2N=O)cc1 (centres undefined) | > 750 µM | > 1000 µM | > 750 µM | > 1000 µM |  | > 700 µM | > 1000 µM | > 1000 µM | 78.1 µM | > 1000 µM | > 750 µM | > 1000 µM | 30.5 µM and 248 µM | 750 µM and > 1000 µM | > 750 µM | > 750 µM | > 71 µM and 73.1 µM | 750 µM and > 873 µM | 20.7 µM | 491 µM
